According to US20260116957A1, “PHARMACEUTICAL COMPOSITION FOR AMELIORATING ACUTE LUNG INJURY AND ACUTE WORSENING OF PULMONARY FIBROSIS” (priority 2021, published 2026):
Where two headings read alike, the source gives them in different places. Residues, ends and D or L forms follow the SMILES beside them.

Key:
[1] = tested on: peptidase fraction prepared from Staphylococcus nepalensis culture supernatant (putative serine protease); type: biochemical
[2] = tested on: A549 alveolar epithelial cells; test: Apoptosis assay of A549 cells (flow cytometry, annexin V / propidium iodide); type: cell-based, human; conditions: for concentration at which apoptotic activity is shown: synthetic corisin; for apoptotic activity compared with the parent corisin sequence: single amino acid mutants, FIG. 35
[3] = tested on: mice having established pulmonary fibrosis; conditions: cited from earlier work
[4] = tested on: mice with bleomycin-induced pulmonary fibrosis; test: Intratracheal corisin in mice with bleomycin-induced pulmonary fibrosis; type: in vivo, mouse; conditions: for CT scores after intratracheal corisin: 300 pg/mouse on day 20
Description: AE-Inducing Action of Corisin in Bleomycin-Induced Pulmonary Fibrosis Bleomycin (BLM)-induced pulmonary fibrosis in mice or rats is the most characterized and commonly used preclinical model for IPF studies (Reference Literature 28). It is unclear whether corisin exacerbates disease in BLM-induced pulmonary fibrosis. To address this question, an experimental model was developed in wild-type (WT) mice by infusing BLM via osmotic minipumps and administering corisin via intratracheal instillation (FIG. 21a). Bleomycin (BLM) or physiological saline (SAL) was infused from osmotic minipumps implanted subcutaneously in the backs of mice according to the experiment schedule for inducing acute exacerbation in mice with bleomycin-induced pulmonary fibrosis shown in FIG. 21a. Computed tomography (CT) scans were performed before and after intratracheal administration of corisin or a scrambled peptide before mouse euthanasia. Mice administered SAL via osmotic minipumps and intratracheal corisin or a scrambled peptide were used as a control. Mice were euthanized 22 days after BLM or SAL pump implantation.
After confirming pulmonary fibrosis onset by chest CT, autologous CT score criteria (FIG. 21b) were used to assign mice into two groups with concordant CT scores.
Wild-type (WT) mice were administered bleomycin (BLM) by osmotic minipump on day 0 and intratracheally instilled (75 μL) with corisin or a scrambled peptide (300 pg/mouse) on day 20 post-pump implantation. CTs were performed as described in Example 2. […] Next, wild-type (WT) mice were administered physiological saline (SAL) by osmotic minipump on day 0 and intratracheally instilled (75 μL) with corisin or a scrambled peptide (300 pg/mouse) on day 20 post-pump implantation.
Next, inflammatory cells and the like in mice with BLM-induced pulmonary fibrosis which had been administered intratracheal corisin were examined. Wild-type (WT) mice were administered bleomycin (BLM) or physiological saline (SAL) by osmotic minipump on day 0 and intratracheally instilled (75 μL) with corisin or a scrambled peptide ([…]) on day 20 post-pump implantation. BALF total cell counts were determined using a NucleoCounter and cell fraction counts were conducted after Giemsa staining using WindRoof image software. Levels of serum amyloid P component (SAP), MUC-1, monocyte chemoattractant protein-1 (MCP-1), periostin, collagen I, and osteopontin were measured by enzyme immunoassay according to the manufacturer's instructions.
Next, caspase-3 cleavage was evaluated by Western blotting and quantified. […] Collagen deposition was evaluated using Masson's trichrome staining and quantified using WindRoof imaging software. Pulmonary tissue content of hydroxyproline was measured by colorimetric analysis using a commercially available kit in accordance with the manufacturer's instructions. […] These findings indicate that corisin also exacerbates disease in BLM-induced pulmonary fibrosis.

[5] = Half-life of corisin in A549 cell culture medium; conditions: A549 alveolar epithelial cell culture (cell supernatant), human alveolar (A549) cell culture system, read-out: half-life in the solution
Procedure: In order to ascertain how quickly corisin is metabolized in a cell culture system, the half-life of corisin was investigated. A549 alveolar epithelial cells were cultured in DMEM to which 10% fetal bovine serum had been added until confluent. Next, corisin was inoculated into a cell culture medium at a final concentration of 10 micrograms/mL, and cell supernatant was collected after 0, 1, 3, 6, 12, and 24 hours. The concentration of corisin was measured by an enzyme immunoassay method, and the half-life of corisin was examined. […] Therefore, serum corisin measurements should be performed immediately after the onset of acute exacerbation.

[6] = tested on: A549 alveolar epithelial cells; test: RT-PCR of mRNA expression of pro-apoptotic and anti-apoptotic factors; type: cell-based, human; conditions: 50 μM corisin, 24 hours, vs scrambled peptides
Procedure: Next, the effect of corisin on mRNA expression of markers for pro-apoptotic factors such as Bax and anti-apoptotic factors BIRC1, BIRC5, BIRC7, Bcl2, BclXL, cyclin D1, proliferating cell nuclear antigens, and proliferating Ki-67 were examined. A549 alveolar epithelial cells were cultured in the presence of 50 μM corisin for 24 hours, total mRNA was extracted, and cDNA was prepared and amplified by RT-PCR.

[7] = tested on: TGFβ1 TG mice with pulmonary fibrosis; test: Corisin-induced acute exacerbation of pulmonary fibrosis in TGFβ1 TG mice; type: in vivo, mouse; conditions: TGFβ1 TG mice with fibrosis treated with isotype antibody
Procedure: Next, TGFβ1 TG mice with pulmonary fibrosis were then assigned to two groups having corresponding computed tomography (CT) scan scores (FIG. 18a, b). CT examinations were performed as follows.
Lung CT was performed using a LaTheta LCT-200 micro CT purchased from Hitachi Aloka Medical (Tokyo, Japan). Mice were anesthetized by inhalation of isoflurane and then placed in the prone position to collect data (Non-Patent Literature 19, Reference Literature 61). Seven to nine specialists in pulmonary radiology, blinded to treatment groups, scored the CT findings on the TGFβ1 TG mice with pulmonary fibrosis based on previously reported and validated criteria as follows. Score 1, Normal lung findings; score 2, interim findings; score 3, mild pulmonary fibrosis; score 4, interim findings; score 5, moderate pulmonary fibrosis; score 6, interim findings; and score 7, progressive pulmonary fibrosis (Non-Patent Literature 19). The same criteria were used to score pulmonary inflammation and fibrosis in a BLM-induced pulmonary fibrosis mouse model (FIG. 21b).
A group of fibrosis-free TGFβ1 TG mice administered intratracheal corisin served as a control (FIG. 18a, b). […]

[8] = tested on: Caki-2, HaCaT, ARPE-19, Caco-2, HIEC-6 and ihPOD cells; test: Caspase-3 cleavage by Western blotting in further epithelial cell lines; type: cell-based, human; conditions: 10 μg/mL peptide, 24 hours, all cell lines, vs scrambled peptide
Description: Caki-2 cell line derived from proximal tubular epithelium, HaCaT keratinocyte cell line derived from adult skin, ARPE-19 retinal pigment epithelial cell line, Caco-2 cell line derived from colon cancer, and HIEC-6 cell line derived from normal human small intestinal epithelial cells were obtained from the American Type Culture Collection (American Type Culture Collection; Manassas, VA). RPMI 1640 culture medium was purchased from Sigma-Aldrich (St. Louis, Missouri) and fetal bovine serum (FBS) was purchased from Bio Whittaker (Bio Whittaker; Walkersville, Maryland). L-glutamine, penicillin, and streptomycin were obtained from Invitrogen (Carlsbad, California). Caki-2 cells, Caco-2 cells, and ihPOD cells were cultured in RPMI 1640 culture medium, HaCaT cells in DMEM culture medium, ARPE-19 cells in DMEM/F12 culture medium, and HIEC-6 cells in DMEM culture medium.
Each cell line was cultured until subconfluent to examine caspase-3 cleavage by Western blotting. […] Cells were stimulated with 10 μg/mL of a scrambled peptide, corisin, or corisin-like peptide, cultured for 24 hours, and then Western blotting was performed.

[9] = BLM mice, 300 μg/mouse intratracheal, vs scrambled peptide
[10] = BLM mice, corisin vs scrambled peptide

Compound: O=C(O)CN(CCN(CC(=O)O)CC(=O)O)CC(=O)O [EDTA, ethylenediaminetetraacetic acid]
- suppression of transglycosylase degradation [1]: neither E-64 nor EDTA suppressed transglycosylase degradation

Compound: Cl.NCCc1ccc(S(=O)(=O)F)cc1 [Pefabloc SC]
- suppression of transglycosylase degradation ([1]; 0.1, 0.3, 1 mM, 37° C. for 0.5, 1 and 2 hours): suppress transglycosylase degradation

Compound: CC[C@H](C)[C@H](N)C(=O)N[C@H](C(=O)N[C@@H](CCSC)C(=O)N1CCC[C@H]1C(=O)N[C@@H](CCC(=O)O)C(=O)N[C@@H](CO)C(=O)N[C@@H](CO)C(=O)NCC(=O)N[C@@H](CC(N)=O)C(=O)N1CCC[C@H]1C(=O)N[C@@H](CC(N)=O)C(=O)N[C@@H](C)C(=O)N[C@H](C(=O)N[C@@H](CC(N)=O)C(=O)N1CCC[C@H]1C(=O)N[C@@H](C)C(=O)NCC(=O)N[C@@H](Cc1ccc(O)cc1)C(=O)N[C@@H](CCCNC(=N)N)C(=O)O)C(C)C)C(C)C [corisin, IVMPESSGNPNAVNPAGYR] (H-IVMPESSGNPNAVNPAGYR-OH; N-terminus and C-terminus assumed)
- concentration at which apoptotic activity is shown [2]: 10 pg/mL
- concentration at which apoptotic activity is shown ([2]; A549 cells): 1e+07 pg/mL
- apoptosis-inducing activity compared to the Staphylococcus haemolyticus peptide ([2]; synthetic peptides, A549 cells, FIG. 3): slightly higher
- effect of intrapulmonary administration [3]: causes apoptosis of alveolar epithelial cells and acute exacerbation (AE)
- circulation level of serum amyloid P component [4, 9]: increased
- level of MUC-1 [4, 9]: increased
- level of collagen I [4, 9]: increased
- level of monocyte chemoattractant protein-1 (MCP-1) [4, 9]: increased
- level of osteopontin [4, 9]: increased
- level of periostin [4, 9]: increased
- total number of lymphocytes in BALF [4, 9]: increased significantly
- collagen deposition in the lungs [4, 10]: increased
- hydroxyproline content in the lungs [4, 10]: increased
- caspase-3 cleavage (Western blotting) ([4]; BLM mice, intratracheal corisin vs scrambled peptide): significantly increased
- changes in mice administered physiological saline via osmotic minipump ([4]; SAL pump mice without fibrosis): no significant changes
- CT scores after intratracheal corisin ([4]; WT mice with BLM-induced pulmonary fibrosis): worsened significantly
- CT scores after intratracheal corisin ([4]; mice without pulmonary fibrosis (SAL pump)): did not change
- half-life at 10 micrograms/mL [5]: < 1 h
- mRNA expression of anti-apoptotic factors [6]: significantly reduced
- mRNA expression of pro-apoptotic factors such as Bax and APAF-1 [6]: significantly increased
- CT findings after intratracheal corisin [7]: significantly worse
- cleavage of caspase-3 [8]: significantly increased

Compound: IVMPESSGNPNAVNAAGYR [corisin P15A]
- apoptotic activity compared with the parent corisin sequence [2]: devoid of apoptotic activity

Compound: IVMPESSGNPNAVSPAGYR [corisin N14S]
- apoptotic activity compared with the parent corisin sequence [2]: devoid of apoptotic activity
